# Measured values from US8642516B2, “Chemically-defined arrays for screening cell-substrate interactions” (Wisconsin Alumni Research Foundation, priority 2012, dated 2014).
# What was measured:
# [1] = test system: HUVEC; experiment: HUVEC proliferation (normalized cell number C72/C0) on SAM array spots presenting GRGDSP; format: cell-based, human; conditions: HUVECs, 72 hours
# Protocol: For cell assays on SAM arrays, HUVECs or hMSCs were removed from plastic culture plates using a 0.05% trypsin solution, resuspended in media, and seeded onto SAM arrays in sterile polystyrene Petri dishes. After allowing cells to attach for ˜1 hour in a humidified incubator at 37° C. and 5% CO2, arrays were dipped in warm media to remove loosely attached cells and then transferred to a rectangular multidish (Thermo Scientific/Nunc, Rochester, N.Y.) with warm media and imaged ˜4 hours later serving as “0 hr.” For the initial time point and subsequent time-lapse imaging, arrays were placed on an incubated stage and each array spot was imaged every 15 minutes for 72 hours. […]
# Relative cell attachment at 0 hrs was quantified by counting the number of attached cells per spot and normalizing cell numbers to maximal attachment conditions. Normalized cell number was calculated by dividing the number of cells per spot at 72 hours (C72) to the cell number observed on the same spot at 0 hrs (C0). Relative proliferation was determined by dividing normalized cell numbers at 72 hours by the maximum average normalized cell number observed across GRGDSP density conditions. Similarly, relative spreading was determined by dividing projected cell areas to the maximum average projected cell area observed across GRGDSP density conditions. […]
# [2] = test system: hMSC; experiment: Alkaline phosphatase activity staining of hMSCs on SAM arrays; format: cell-based, human; conditions: high GRGDSP density SAM spots, 7 days
# From the text: In this SAM array approach, each spot was designed to contain the same total molar density (mol/cm^2) of peptide from spot to spot. Therefore, control over individual peptide density was achieved by mixing scrambled BR-BP and HPG-BP and mutant GRGESP (SEQ ID NO:19) peptides with functional BR-BP, HPG-BP or GRGDSP (SEQ ID NO:18) peptides, respectively. Therefore, in a typical SAM array, SAMs were locally formed within spots using an alkanethiolate mixture of 95% HS—C11-EG3-OH and 5% HS—C11-EG6-COOH to create substrates with a total of 5% carboxylate groups for peptide conjugation. Here, “X %” refers to the mole percent of alkanethiolate present during SAM formation and subsequently the approximate amount of an alkanethiolate present on the surface after SAM formation. To regulate the density of active peptide present in each spot, mutant and scramble versions of peptides were included during peptide conjugation. […] As mentioned previously, peptide concentrations were easily measured using UV/Vis since all peptides either contained residues that absorbed strongly at 280 nm, or were engineered to contain tryptophan residues in the poly-glycine tail. […]
substance,measurement,setting,value
GRGDSP,maximum normalized cell number (C72/C0),[1]; across GRGDSP densities,1.6
same,proliferation,[1]; below 0.06% GRGDSP,no proliferation
same,staining for alkaline phosphatase activity,[2],increased staining for alkaline phosphatase activity
